# Measured values taken from patent US20250108038A1 (priority 2023, published 2025).
# Entries after “also recorded” stand apart in the source; their conditions may differ.
# Experiments:
# OAT1 = target: T1, OAT1 (Homo sapiens, UniProt Q4U2R8); test: Uptake transporter inhibition assay, OAT1 (tenofovir); settings: for Maximum % inhibition: OAT1, HEK293 cells, tenofovir (5 μM), NIO: no inhibition observed
# T1 sequence (Q4U2R8 1-563): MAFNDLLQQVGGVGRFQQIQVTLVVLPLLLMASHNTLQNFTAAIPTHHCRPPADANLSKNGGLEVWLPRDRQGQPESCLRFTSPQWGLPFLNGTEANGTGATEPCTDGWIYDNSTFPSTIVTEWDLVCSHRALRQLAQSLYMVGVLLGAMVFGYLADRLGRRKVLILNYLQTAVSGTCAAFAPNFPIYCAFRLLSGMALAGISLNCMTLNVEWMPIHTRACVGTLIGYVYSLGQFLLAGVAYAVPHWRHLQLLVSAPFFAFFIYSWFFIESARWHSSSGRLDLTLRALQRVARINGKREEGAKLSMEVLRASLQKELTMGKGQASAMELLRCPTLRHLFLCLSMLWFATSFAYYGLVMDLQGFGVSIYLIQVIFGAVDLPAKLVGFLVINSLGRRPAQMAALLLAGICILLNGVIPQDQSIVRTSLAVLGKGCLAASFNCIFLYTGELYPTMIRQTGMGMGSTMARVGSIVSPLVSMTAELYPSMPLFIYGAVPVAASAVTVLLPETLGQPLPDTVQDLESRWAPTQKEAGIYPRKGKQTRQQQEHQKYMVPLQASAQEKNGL
# Procedure: Uptake experiments were performed using HEK293 cells stably expressing the respective uptake transporters. The assays were conducted according to the actual SOLVO uptake transporter assay protocols (PR-ASY-UPT-General Protocol for Uptake Transporter Inhibition Assays).
# Cells were cultured at 37° C. in a humidified atmosphere containing 5% CO2 and were plated onto standard 96-well tissue culture plates.
# Before the experiment, the medium was removed, and the cells were washed twice with 100 μL of pre-warmed (37° C.) assay buffer listed in Table 15. The cells were pre-incubated at 37° C. for 30 minutes in assay buffer containing the test article at appropriate concentrations (Table 16), appropriate solvents for solvent controls and the reference inhibitor for reference inhibitor wells. After the pre-incubation step solutions were removed. Uptake experiments were performed at 37° C. in 50 μL of assay buffer containing the probe substrate and the test article or solvent and controls.
# After the experiment, cells were washed twice with 100 μL of appropriate cold buffer and lysed with 150 μL scintillation cocktail. Radiolabeled probe substrate transport was determined by liquid scintillation counting.
# Uptake of the probe substrate in control cells provided background activity values for all data points.
# [1] = Stability of test articles at different pH values (SGF, SIF, PBS); assay type: physicochemical; settings: 0.1 mM, 37° C., 0-120 min
# Procedure: FIG. 1A. […] (final concentration 0.1 mM) and the mixture was incubated at 37° C. for 120 min. total. […] Values represent mean+SEM of n=3 separate experiments.
# FIG. 1B. Stability of Compound I-4 in 3 different fluid matrices modeling 3 different body fluids: SGF (gastric, pH 2.0), SIF (upper intestinal, pH 6.0), and PBS (systemic fluid, pH 7.4). […] (final concentration 0.1 mM) and the mixture was incubated at 37° C. for 120 min. total. […] Values represent mean+SEM of n=3 separate experiments.
# 10 mM stock solutions of test articles were prepared in DMSO. From this stock solution, a single concentration in a 10 μL aliquot was added to three fluid matrices: SGF at pH 2.0 (gastric), SIF at pH 6.0 (upper intestine), and PBS at pH 7.4 (systemic fluid). The final volume was 1 mL (0.1 mM).
# LC-MS/MS analysis of test articles was performed on a Waters Acquity UPLC system in-line with a Waters TQ-S triple quadrupole mass spectrometer via an electrospray interface.
# UPLC separation of samples was performed on a Waters BEH Phenyl 2.1×50 column at 40 C. Mobile phase was 0.1% formic acid in water for mobile phase A and 0.1% formic acid in acetonitrile as mobile phase B. Gradient elution was 1% B initial, 65% B to 95% B at 2 minutes, 95% B at 4 minutes, and 1% B at 4.1 minutes. Flow rate was 0.4 mL/min and 5 μL of samples was injected.
# human gut microbiota = test: Stability in human gut microbiota; settings: human fecal matter, 37° C., 0-120 min
# Procedure: FIG. 7A. […] Gut microbiota from rat and human sources were extracted and purified in PBS at pH 6.0 or 7.4. A stock solution of 10 mM was prepared and a 10 μL aliquot was added to extracted microorganisms at 0 min. […] Values represent mean+SEM of n=3 separate experiments.
# FIG. 7B. […] Gut microbiota from rat and human sources were extracted and purified in PBS at pH 6.0 or 7.4. A stock solution of 10 mM was prepared and a 10 μL aliquot was added to extracted microorganisms at 0 min. […] Values represent mean+SEM of n=3 separate experiments.
# Rat fecal material was obtained and weighed. One capsule of the raw probiotics was crushed and weighed prior to use. The weighed samples were then solubilized in PBS at pH 6.0 and 7.4 to extract microorganisms. The samples were centrifuged at 18,000×g for 10 min. to remove particulates and the supernatant was used to evaluate test article stability. An aliquot (50 μL) of the test article stock solutions were added to the fecal extract (final concentration 0.5 mM) and allowed to incubate at 37° C. […] The collected sample was quenched in acetonitrile/0.1% formic acid mixture.
# [2] = 10.00 μM nominal, 6.60 μM NSB corrected
# [3] = 100.00 μM nominal, 77.00 μM NSB corrected
SMILES,Relative transporter specific accumulation (OAT1; 3.00 μM nominal),Transporter specific accumulation (OAT1; 3.00 μM nominal),Relative transporter specific accumulation (OAT1; 30.00 μM nominal),Transporter specific accumulation (OAT1; 30.00 μM nominal),Maximum % inhibition (OAT1),inhibition at 3 μM (OAT1; human),inhibition at 30 μM (OAT1; human),maximum inhibition of OAT1-mediated tenofovir accumulation (OAT1; up to 100 μM (Compound A up to 30 μM)),"Stability (% parent compound remaining) ([1]; PBS (systemic fluid, pH 7.4))","Stability (% parent compound remaining) ([1]; SGF (gastric, pH 2.0))","Stability (% parent compound remaining) ([1]; SIF (upper intestinal, pH 6.0))","% parent compound remaining (human gut microbiota; pH 6, 0.5 mM)","% parent compound remaining (human gut microbiota; pH 7.4, 0.5 mM)",Relative inhibition (OAT1; [2]),Relative transporter specific accumulation (OAT1; [2]),Transporter specific accumulation (OAT1; [2]),Relative inhibition (OAT1; [3]),Relative transporter specific accumulation (OAT1; [3]),Transporter specific accumulation (OAT1; [3])
"OC1(c2ccc(Cl)cc2)c2ccccc2C2=NCCN21 (stereo not drawn) [Compound A, 5-(4-chlorophenyl)-2,3-dihydroimidazo[1,2-b]isoindol-5-ol, reference compound]",99.68 ± 2.39 % of control,"2,392.67 ± 13.09 cpm",88.39 ± 4.23 % of control,"2,121.67 ± 88.79 cpm",NIO,0%,12%,did not inhibit; also recorded: not an in vitro inhibitor,–,–,–,–,–,–,–,–,–,–,–
COCCOC1(c2ccc(Cl)cc2)c2ccccc2C2=NCCN21 (stereo not drawn) [Compound I-4],–,–,–,–,–,–,–,–,no significant change in the amount of parent compound; also recorded: stable in all three fluid matrices,no significant change in the amount of parent compound; also recorded: stable in all three fluid matrices,no significant change in the amount of parent compound; also recorded: stable in all three fluid matrices,≥ 100%,decreases after 10 min. and reached a steady-state until 120 min; also recorded: slightly unstable,–,–,–,–,–,–
Clc1ccc(C2(OCC3OCCO3)c3ccccc3C3=NCCN32)cc1 (stereo not drawn) [Compound I-19],–,–,–,–,33%,–,–,–,time-dependent decrease in the amount; also recorded: some lack of stability,time-dependent decrease in the LCMSMS peak area until 20 min; also recorded: some lack of stability over 15 min,–,no significant change in the amount of parent compound,at or above 100% for all time points except 120 min,11%,89.39 ± 1.16 % of control,"5,462.33 ± 30.98 cpm",33%,66.61 ± 1.15 % of control,"4,070.33 ± 51.74 cpm"
